Source: the supplement of paper PMC10331698
± gives the standard deviation of the averaged measurements.

Experiments:
Test in all cases: level (log10 ratio to DMSO vehicle control); higher = higher biomarker level / cell amount than vehicle control
[1] = compound: OCCCC(F)(F)C(F)(F)C(F)(F)C(F)(F)C(F)(F)C(F)(F)C(F)(F)C(F)(F)F [3-(Perfluorooctyl)propanol]; details: 6700 nM; in DMSO
Experimental: (§1)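 BioMAP Diversity Plus panel of 12 human primary cell co-culture systems (3C, 4H, LPS, SAg, BT, BF4T, BE3C, CASM3C, HDF3CGF, KF3CT, MyoF, Mphg). Compounds were added 1 h before stimulation and left for 24 h (MyoF 48 h; BT 72 h for soluble read-outs or 6 d for IgG). Biomarkers were read by ELISA, cytotoxicity by SRB, PBMC viability and proliferation by Alamar Blue. Each well value was divided by the mean of 8 DMSO control wells on the same plate and log10 transformed; duplicate blinded samples were tested at 4 concentrations.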

[2] = compound: C=CC(=O)OCCC(F)(F)C(F)(F)C(F)(F)C(F)(F)C(F)(F)C(F)(F)C(F)(F)C(F)(F)F [8:2 Fluorotelomer acrylate]; details: in DMSO
Experimental: as §1

Methotrexate = compound: CN(Cc1cnc2nc(N)nc(N)c2n1)c1ccc(C(=O)N[C@@H](CCC(=O)O)C(=O)O)cc1 [Methotrexate]; details: in DMSO
Experimental: as §1

[3] = compound: O=C(Cl)C(F)(F)C(F)(F)C(F)(F)C(=O)Cl [Hexafluoroglutaryl chloride]; details: in DMSO
Experimental: as §1

[4] = compound: FC(F)(I)C(F)(F)C(F)(F)C(F)(F)C(F)(F)C(F)(F)I [1,6-Diiodoperfluorohexane]; details: 6700 nM; in DMSO
Experimental: as §1

Perfluoropinacol = compound: OC(C(F)(F)F)(C(F)(F)F)C(O)(C(F)(F)F)C(F)(F)F [Perfluoropinacol]; details: in DMSO
Experimental: as §1

Perfluorooctanoic acid = compound: O=C(O)C(F)(F)C(F)(F)C(F)(F)C(F)(F)C(F)(F)C(F)(F)C(F)(F)F [Perfluorooctanoic acid]; details: in DMSO
Experimental: as §1

[5] = compound: Cc1ccc(S(=O)(=O)OCC(F)(F)C(F)(F)C(F)(F)C(F)(F)C(F)(F)C(F)F)cc1 [1H,1H,7H-Perfluoroheptyl 4-methylbenzenesulfonate]; details: in DMSO
Experimental: as §1

Test System | level (log10) [1] | level (log10) ([2]; 6700 nM) | level (log10) ([2]; 20000 nM) | level (log10) ([2]; 60000 nM) | level (log10) (Methotrexate; 1500 nM) | level (log10) (Methotrexate; 4400 nM) | level (log10) (Methotrexate; 13000 nM) | level (log10) (Methotrexate; 40000 nM) | level (log10) ([3]; 6700 nM) | level (log10) ([3]; 20000 nM) | level (log10) ([3]; 60000 nM) | level (log10) [4] | level (log10) (Perfluoropinacol; 6700 nM) | level (log10) (Perfluoropinacol; 20000 nM) | level (log10) (Perfluorooctanoic acid; 6700 nM) | level (log10) (Perfluorooctanoic acid; 20000 nM) | level (log10) (Perfluorooctanoic acid; 60000 nM) | level (log10) ([5]; 6700 nM) | level (log10) ([5]; 20000 nM) | level (log10) ([5]; 60000 nM)
3C:CD106/VCAM-1 | -0.021 | -0.0185 ± 0.015 | -0.027 ± 0.041 | -0.024 ± 0.05 | -0.0115 ± 0.044 | -0.005 ± 0.021 | 0.0055 ± 0.035 | -0.0135 ± 0.026 | -0.03 ± 0.021 | -0.028 ± 0.035 | -0.018 ± 0.02 | -0.043 | -0.006 ± 0.02 | -0.0385 ± 0.018 | -0.0435 ± 0.053 | -0.0325 ± 0.05 | -0.013 ± 0.067 | -0.0205 ± 0.0064 | -0.0085 ± 0.0064 | -0.037 ± 0.025
MyoF:bFGF | -0.034 ± 0.017 | -0.015 ± 0.0028 | -0.015 ± 0.014 | -0.0025 ± 0.0092 | -0.0095 ± 0.015 | -0.0045 ± 0.021 | 0.009 ± 0.0071 | -0.0095 ± 0.0035 | 0.0045 ± 0.0035 | -0.0035 ± 0.0078 | 0.0135 ± 0.0035 | -0.127 | -0.0075 ± 0.012 | -0.0225 ± 0.0092 | -0.023 ± 0.0057 | -0.0275 ± 0.0035 | -0.0085 ± 0.03 | -0.0005 ± 0.0021 | 0.012 ± 0.0071 | 0.009 ± 0.017
HDF3CGF:SRB | -0.397 ± 0.28 | -0.02 ± 0.0071 | -0.0305 ± 0.037 | 0.003 ± 0.0014 | 0.018 ± 0.034 | -0.0135 ± 0.0035 | 0.025 ± 0.011 | 0.014 ± 0.016 | -0.004 ± 0.0085 | 0.0295 ± 0.0035 | 0.007 ± 0.014 | -0.644 | -0.027 ± 0.0042 | -0.0055 ± 0.039 | -0.0075 ± 0.026 | 0.0325 ± 0.043 | -0.0245 ± 0.056 | 0.0175 ± 0.033 | -0.0095 ± 0.026 | -0.04 ± 0.055
MyoF:SRB | -0.017 ± 0.0014 | 0 ± 0.0014 | -0.001 ± 0.0028 | -0.0095 ± 0.0092 | 0.012 ± 0.013 | 0.003 | 0.0125 ± 0.0064 | -0.0005 ± 0.005 | 0 ± 0.011 | 0.003 ± 0.0028 | -0.003 ± 0.018 | -0.209 | -0.012 | -0.0445 ± 0.0021 | 0.0025 ± 0.0035 | 0.0065 ± 0.012 | -0.034 ± 0.0057 | -0.004 ± 0.018 | -0.021 ± 0.0085 | -0.024 ± 0.0014
3C:CCL2/MCP-1 | 0.003 ± 0.013 | 0.005 ± 0.0042 | -0.0155 ± 0.0064 | 0.019 ± 0.016 | 0.0505 ± 0.0064 | -0.013 ± 0.027 | 0.0065 ± 0.0078 | 0.028 ± 0.028 | 0.009 ± 0.0028 | -0.0105 ± 0.035 | 0.009 ± 0.065 | 0.01 | 0.092 ± 0.013 | 0.0445 ± 0.012 | 0.0055 ± 0.016 | 0.008 ± 0.0071 | 0.04 ± 0.034 | -0.011 ± 0.0028 | -0.0075 ± 0.0021 | -0.0475 ± 0.011
3C:CD62E/E-Selectin | -0.024 ± 0.0099 | -0.0165 ± 0.011 | -0.0145 ± 0.022 | 0.001 ± 0.035 | 0.007 ± 0.0057 | -0.0145 ± 0.0035 | -0.004 ± 0.02 | 0.01 ± 0.011 | -0.0315 ± 0.049 | -0.02 ± 0.038 | -0.0025 ± 0.012 | 0.005 | -0.007 ± 0.013 | -0.0605 ± 0.03 | 0.001 ± 0.0042 | 0.0195 ± 0.0035 | 0.0725 ± 0.0078 | -0.0085 ± 0.005 | -0.03 ± 0.0057 | -0.081 ± 0.016
MyoF:MMP-1 | 0.0315 ± 0.011 | -0.0295 ± 0.0092 | -0.06 ± 0.071 | 0.0075 ± 0.098 | 0.002 ± 0.027 | -0.017 ± 0.02 | -0.004 ± 0.018 | 0.0175 ± 0.0021 | -0.043 ± 0.05 | -0.026 ± 0.054 | -0.0195 ± 0.018 | 0.469 | -0.0075 ± 0.012 | -0.027 ± 0.0042 | -0.032 | -0.018 ± 0.038 | 0.043 ± 0.086 | -0.0115 ± 0.0035 | 0.0185 ± 0.016 | 0.048 ± 0.014
CASM3C:CD142/Tissue Factor | -0.007 ± 0.054 | -0.036 ± 0.021 | -0.047 ± 0.05 | -0.0145 ± 0.032 | 0.0505 ± 0.005 | 0.0195 ± 0.049 | 0.0265 ± 0.042 | 0.0305 ± 0.026 | -0.0245 ± 0.028 | -0.0635 ± 0.037 | -0.0395 ± 0.035 | 0.001 | -0.0515 ± 0.022 | -0.0235 ± 0.06 | -0.0055 ± 0.039 | -0.008 ± 0.048 | -0.0345 ± 0.061 | -0.038 ± 0.014 | -0.057 ± 0.047 | -0.0205 ± 0.03
MyoF:alpha-SM Actin | -0.0885 ± 0.061 | 0.0185 ± 0.069 | 0.0145 ± 0.063 | 0.009 ± 0.059 | -0.001 ± 0.0028 | -0.0225 ± 0.0092 | -0.008 ± 0.0071 | -0.017 ± 0.033 | -0.0115 ± 0.018 | -0.0065 ± 0.057 | -0.0105 ± 0.035 | -0.486 | -0.004 ± 0.0028 | -0.14 ± 0.035 | 0.014 ± 0.02 | 0.0155 ± 0.047 | -0.0035 ± 0.032 | -0.052 ± 0.011 | -0.0625 ± 0.022 | -0.0765 ± 0.019
CASM3C:LDLR | 0.0385 ± 0.023 | -0.008 ± 0.011 | -0.0135 ± 0.011 | -0.002 ± 0.0099 | 0.011 ± 0.0042 | 0.0465 ± 0.042 | 0.0205 ± 0.022 | 0.0455 ± 0.066 | -0.052 ± 0.03 | -0.0235 ± 0.025 | 0.0035 ± 0.035 | -0.028 | -0.067 ± 0.0014 | -0.0505 ± 0.018 | -0.011 | 0.001 ± 0.013 | 0.004 ± 0.014 | -0.0095 ± 0.0092 | 0.007 ± 0.0099 | 0.0285 ± 0.022
HDF3CGF:TIMP-2 | 0.029 ± 0.013 | -0.014 ± 0.027 | -0.0405 ± 0.0064 | -0.0295 ± 0.0092 | -0.0655 ± 0.032 | 0 ± 0.11 | -0.005 ± 0.085 | -0.0335 ± 0.15 | -0.0215 ± 0.086 | -0.0155 ± 0.088 | -0.025 ± 0.075 | -0.012 | -0.0625 ± 0.005 | -0.126 ± 0.0021 | -0.013 ± 0.014 | 0.0045 ± 0.019 | 0.033 ± 0.0042 | -0.042 ± 0.081 | -0.101 ± 0.053 | -0.032 ± 0.035
MyoF:Collagen I | -0.046 ± 0.024 | -0.0095 ± 0.005 | -0.0205 ± 0.015 | 0.011 ± 0.0099 | -0.0115 ± 0.049 | -0.01 ± 0.059 | 0.01 ± 0.035 | 0.004 ± 0.038 | 0.004 ± 0.013 | -0.0005 ± 0.025 | 0.0145 ± 0.00071 | -0.444 | 0.044 | -0.006 ± 0.0099 | -0.0065 ± 0.0092 | -0.0035 ± 0.036 | -0.034 ± 0.017 | -0.001 ± 0.0028 | 0.019 ± 0.0099 | 0.001 ± 0.016
MyoF:CXCL8/IL-8 | -0.0505 ± 0.033 | -0.003 ± 0.02 | 0.008 ± 0.018 | 0.029 ± 0.0057 | 0.0055 ± 0.028 | 0.0135 ± 0.016 | -0.0035 ± 0.033 | 0.0105 ± 0.022 | -0.017 ± 0.0071 | 0.014 ± 0.011 | 0.03 ± 0.0085 | 0.153 | 0.0295 ± 0.005 | 0.0265 ± 0.012 | 0.022 ± 0.0028 | 0.0725 ± 0.026 | 0.078 ± 0.02 | -0.0065 ± 0.0078 | -0.162 ± 0.022 | -0.115 ± 0.025
